System: CALHM1
Assay: CALHM1 N-glycosylation, western blot of transfected HEK293 cells
Type: cell-based, human
Conditions: HEK293 cells transfected with Myc-CALHM1 for six hours, 10 μg/ml tunicamycin, anti-Myc WB
Description: Western blotting (WB) and immunoprecipitation (IP) assays. For WB, cells were washed with PBS and solubilized in ice-cold HEPES buffer (25 mM HEPES, pH 7.4, 150 mM NaCl, 1X Complete protease inhibitor cocktail, Roche) containing 1% SDS. Ten micrograms of extracts was analyzed by SDS-PAGE. A standard ECL detection procedure was then used. For multimerization analyses and IP, cells were harvested six hours after transfection with the indicated CALHM1 cDNAs. Cells were then solubilized for 2 h at 4° C. in HEPES buffer containing 1% Nonidet P-40. Cell extracts were pre-cleared by centrifugation at 10,000 rpm for 5 min. For multimerization analyses, cell extracts were analyzed by WB in the absence (non-reducing conditions) or presence of 5% β-mercaptoethanol (reducing conditions). For IP, supernatants were immunoprecipitated with immobilized anti-Myc antibody, as per supplier's instructions (ProFound Mammalian c-Myc Tag IP Kit, Pierce). Total extracts and immunoprecipitated proteins were then analyzed by WB.
CALHM1 deglycosylation. […] CALHM1-transfected HT-22 cells were solubilized and incubated for 16 h at 37° C. in digestion buffer (50 mM NaH2PO4, pH 7.4, 20 mM EDTA, 0.2% SDS, and 1% β-mercaptoethanol) in the absence or presence of PNGase F. Cell lysates were then analyzed by WB using anti-Myc antibody, as described above.

## tunicamycin
  appearance of the CALHM1 band of higher molecular weight (N-glycosylated form): completely inhibited
